The source of these data is patent US6329349A, “Methods for reducing ischemic injury of the heart via the sequential administration of monophosphoryl lipid A and adenosine receptor agents” (priority 2000, dated 2001).

One assay concerns the target A2a adenosine receptor. The following applies: Table II; cited from earlier work.
Another assay concerns the target A3 adenosine receptor. The following applies: cited from earlier work.
The target of another assay is A1 adenosine receptor. The following applies: Table II; cited from earlier work.
Assay [1] concerns cultured chick ventricular myocytes. Description: Simulated ischemia (hypoxia and glucose deprivation) injury in cultured ventricular myocytes, percentage of cells killed. Conditions: for percentage of myocytes killed; preconditioning effect of the agent after MLA pretreatment vs vehicle pretreatment: MLA (30 or 300 ng/ml) 24 h prior to 5 min exposure to the agent, 10 min agent-free, then 90 min simulated ischemia; for number of cells killed; agent present during prolonged ischemia after MLA pretreatment vs vehicle pretreatment: MLA 300 ng/ml for 4 h, 24 h prior, agent present during 90 min simulated ischemia. Format: cell-based. As for the experimental part:
Ventricular cells were cultured from chick embryos 14 days in ovo (Spafas Inc., Storrs, Conn.) as previously described (16, 23). Cells were cultivated in a humidified 5% CO2 -95% air mixture at 37 C. […] The medium was changed to a HEPES-buffered medium containing (mM) 139 NaCl, 4.7 KCl, 0.5 MgCl2, 0.9 CaCl2, 5 HEPES (N-2-hydroxyethylpiperazine-N'-2-ethanesulfonic acid) and 2% fetal bovine serum, pH 7.4, 37 C. before exposing the myocytes to the various conditions at 37 C. Control myocytes were maintained in HEPES-buffered medium under room air. Hypoxia and glucose deprivation were used to induce and simulate ischemia in the cultured cells. Hypoxia was produced by placing the cells in a hypoxic incubator (NuAire) where O2 was replaced by N2 as previously described (16,23).
The extent of hypoxia-induced injury to the ventricular cell was quantitatively determined by the percentages of cells killed. To quantitate the % of cells killed, cells were exposed to a trypsin-EDTA Hanks' balanced salt solution for 10 minutes for detachment after the various treatment, followed by centrifugation (300×g for 10 minutes) and resuspension in culture media for counting in a hemocytometer. Only live cells sedimented and the cells counted represented those that survived (46). None of the sedimented cells subsequently counted included trypan blue. […] There was no protein in the culture media following a second 300×g centrifugation of resuspended cells previously treated with trypsin-EDTA.
The percentage of cells killed was calculated as the number of cells obtained from the control group (representing cells not subjected to any hypoxia or drug treatment) minus the number of cells from the treatment group divided by number of cells in control group multiplied by 100%. […]
In this experiment, myocytes were treated with either the vehicle (0.04% propylene glycol, 0.01% ethyl alcohol) or MLA 24 hours prior to a 5 minute exposure to 10 μM adenosine. Adenosine was removed by replacement of the culture medium with adenosine-free medium, and the cells were exposed to normal room air O2 for 10 minutes, followed by 90 minutes of simulated ischemia treatment.
The experimental protocol utilized in these studies entailed pretreatment of myocytes with MLA for a 4 hour period 24 hours prior to exposure of the cardiac myocytes to 90 minutes of simulated ischemia. During this 90 minute simulated ischemia period, several cardioprotective agents were administered individually to cells and their protective effects were assessed.
Additional experiments were performed to assess the differences in cardioprotection observed when MLA was administered as the second cardioprotective agent and an adenosine agonist, KATP channel opener or protein kinase C activator was administered as the first cardioprotective agent. The experiments were performed as follows: Cardiac myocytes were exposed to the first cardioprotective agent for 5 minutes and the agent was removed. Cells were then exposed to a period of simulated ischemia in the presence or absence of 300 ng/ml of MLA. The percentage of cells killed by simulated ischemia alone was 27±2% (n=9) in the absence of any treatment with any cardioprotective agent. When MLA was present during the simulated ischemia, the percentage of cells killed was reduced from 27±2% to 14±1.2%. When cells were exposed to 5 minutes of 10 μM pinacidil, a KATP channel opener followed by exposure to simulated ischemia (in the absence of MLA), the percentage of cells killed was 12.3±1. When the pinacidil-treated cells were exposed to simulated ischemia in the presence of MLA, the percentage of cells killed was reduced from 12.3±1% to 6.3±1.2% (n=3). When cells were exposed to 5 minutes of 1 μM PMA, a PKC activator, followed by exposure to simulated ischemia (in the absence of MLA), the percentage of cells killed was 14±1. […]

A further assay addresses A2. Conditions: table of Compound 8; cited from earlier work.
[2] abbreviates: 5 min exposure to first agent (10 μM pinacidil, 1 μM PMA or 10 μM adenosine), removed, then simulated ischemia in the absence of MLA.
[3] abbreviates: 5 min exposure to first agent (10 μM pinacidil, 1 μM PMA or 10 μM adenosine), removed, then simulated ischemia in the presence of 300 ng/ml MLA.

Entries after “also recorded” stand apart in the source; their conditions may differ. Like-named read-outs stand apart in the source and are kept apart here. Some results are limits rather than exact numbers.

One may read the Ki as the dissociation constant of the complex between target and ligand, obtained from inhibition or displacement. For the molecule `CCNC(=O)[C@H]1O[C@@H](n2cnc3c(NC(=O)Nc4cccc(I)c4)ncnc32)[C@H](O)[C@@H]1O` [Compound 4q, N^6-((3-iodophenyl)carbamoyl)adenosine-5'uronamide], the Ki is 3940 nM at A2a adenosine receptor and 30 nM on A3 adenosine receptor (Table II).
Turning to `CCNC(=O)[C@H]1O[C@@H](n2cnc3c(NC4CCCCC4)ncnc32)[C@H](O)[C@@H]1O` [N^6 -cyclohexyl NECA, N6-cyclohexyl 5'-N-ethylcarboxamidoadenosine], the Ki at A2a adenosine receptor is 170 nM; at A1 adenosine receptor, 0.43 nM; on A3 adenosine receptor (Table II) it was 16 nM.
For the molecule `CCCCCCCCCCCCCC(=O)O[C@@H]1[C@@H](C)[C@@]2(O)[C@@H](C=C(CO)C[C@]3(O)C(=O)C(C)=C[C@@H]23)[C@@H]2C(C)(C)[C@]12OC(C)=O` [PMA, Phorbol 12-myristate 13-acetate], the “percentage of cells killed” value in assay [1] (setting [2]) is recorded as 14±1%; in assay [1] (setting [3]) it was 10.5±1%. In addition, the “percentage of myocytes killed; preconditioning effect of the agent after MLA pretreatment vs vehicle pretreatment” value (from here on “percentage of myocytes killed”) in assay [1] is reported as “enhanced by pretreatment with MLA”.
Take `CNC(=O)[C@H]1O[C@@H](n2cnc3c(NCc4cccc(I)c4)ncnc32)[C@H](O)[C@@H]1O` [IB-MECA, N^6-(3-iodobenzyl)adenosine-5'-N-methyluronamide]: in assay [1], the “number of cells killed; agent present during prolonged ischemia after MLA pretreatment vs vehicle pretreatment” value (“number of cells killed … vs vehicle pretreatment” below) was “synergistic cardioprotective effect” and the “percentage of myocytes killed” value is “significantly reduced the percentage of myocytes killed; also recorded: enhanced by pretreatment of myocytes with MLA”.
Regarding `Nc1ncnc2c1ncn2[C@@H]1O[C@H](CO)[C@@H](O)[C@H]1O` [adenosine], the “percentage of cells killed” value is on record as 12±1.4% in assay [1] (setting [2]) and 7.4±1.2% in assay [1] (setting [3]). Also, in assay [1], the “percentage of myocytes killed” value is on record as “significantly decreased the percentage of myocytes killed”.
As to `CC(N/C(=N\C#N)Nc1ccncc1)C(C)(C)C` (stereo not drawn) [pinacidil], the “percentage of cells killed” value in assay [1] (setting [2]) is reported as 12.3±1%. For the same molecule, the “percentage of cells killed” value in assay [1] (setting [3]) was 6.3±1.2%. In assay [1], the “number of cells killed … vs vehicle pretreatment” value is “greater reduction in the number of cells killed” and the “percentage of myocytes killed” value is “enhanced the preconditioning response mediated by pinacidil”.
For Monophosphoryl lipid A [MLA], the “percentage of cells killed” value in assay [1] (300 ng/ml MLA present during simulated ischemia, no first agent, untreated 27±2%) is 14±1.2%. Further, in assay [1] (MLA 30 and 300 ng/ml for 4 h, 24 h prior to 90 min simulated ischemia, vs untreated, p<0.01), the “percentage of cell death in response to prolonged ischemia” value was “significantly lowered the percentage of cell death”. Also, in assay [1] (MLA 4 h pretreatment, 24 h later 5 min preconditioning ischemia, 10 min recovery, 90 min simulated ischemia), the “percentage of cells killed during prolonged ischemia after preconditioning ischemia” value is “dose-dependent reduction in the percentage of cells killed”.
As to `CNC(=O)[C@H]1O[C@@H](n2cnc3c(NOc4ccccc4)ncnc32)[C@H](O)[C@@H]1O` [Compound 11, 6-(O-Phenylhydroxylamino)purine-9-beta-ribofuranoside-5'-N-methyluronamide], the figures for the Ki at A2a adenosine receptor, on A1 adenosine receptor and at A3 adenosine receptor (Table II) were 66300 nM, 2060 nM and 1340 nM, respectively.
In the case of `CCNC(=O)[C@H]1O[C@@H](n2cnc3c(NC(=O)Nc4ccccc4C(F)(F)F)ncnc32)[C@H](O)[C@@H]1O` [Compound 4d, N^6-((2-trifluoromethyl)carbamoyl)adenosine-5'uronamide], the Ki on A2a adenosine receptor is over 10000 nM; at A1 adenosine receptor, 384 nM; on A3 adenosine receptor (Table II), 54 nM.
Regarding `OC[C@H]1O[C@@H](n2cnc3c(NC4CCCC4)nc(Cl)nc32)[C@H](O)[C@@H]1O` [CCPA, 2-chloro-N^6-cyclopentyl-adenosine], in assay [1], the “number of cells killed … vs vehicle pretreatment” value is “greater reduction in the number of cells killed” and the “percentage of myocytes killed” value is recorded as “significantly reduced the percentage of myocytes killed; also recorded: enhanced by pretreatment of myocytes with MLA”.
Consider `NCCNC(=O)Cc1ccc(NC(=O)Cc2ccc(Nc3ncnc4c3ncn4[C@@H]3O[C@H](CO)[C@@H](O)[C@H]3O)cc2)cc1` [Compound 8], for which the Ki on A3 adenosine receptor (table of Compound 8) was 4 nM; at A2, 210 nM.
